Assay results published in PubChem BioAssay (NCI).
Several values for one entry are separate records, joined by “and”; a condition that tells them apart may be missing. Equal entries are not always repeated.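 Exposure lasted 48 hours, with cells grown in 96-well plates and compounds tested at five concentrations. GI50 marks 50% less growth. TGI: total growth inhibition.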

Legend:
Assay in all cases: inhibition of tumour cell growth, NCI panel, 48 h
HL-60(TB) leukemia = system: HL-60(TB) leukemia
SF-268 CNS = system: SF-268 CNS
MCF7 breast = system: MCF7 breast
SK-MEL-28 melanoma = system: SK-MEL-28 melanoma
LOX IMVI melanoma = system: LOX IMVI melanoma
NCI/ADR-RES ovarian = system: NCI/ADR-RES ovarian
CCRF-CEM leukemia = system: CCRF-CEM leukemia
SF-295 CNS = system: SF-295 CNS
OVCAR-5 ovarian = system: OVCAR-5 ovarian
NCI-H522 lung = system: NCI-H522 lung

Compound	GI50 (HL-60(TB) leukemia)	TGI (HL-60(TB) leukemia)	GI50 (SF-268 CNS)	TGI (SF-268 CNS)	GI50 (MCF7 breast)	TGI (MCF7 breast)	GI50 (SK-MEL-28 melanoma)	TGI (SK-MEL-28 melanoma)	GI50 (LOX IMVI melanoma)	TGI (LOX IMVI melanoma)	GI50 (NCI/ADR-RES ovarian)	TGI (NCI/ADR-RES ovarian)	GI50 (CCRF-CEM leukemia)	TGI (CCRF-CEM leukemia)	GI50 (SF-295 CNS)	TGI (SF-295 CNS)	GI50 (OVCAR-5 ovarian)	TGI (OVCAR-5 ovarian)	GI50 (NCI-H522 lung)	TGI (NCI-H522 lung)
O=C(Nc1cc(C(F)(F)F)cc(C(F)(F)F)c1)Nc1ccc(OCc2nnc(-c3ccc(Cl)cc3)o2)c(F)c1	2.85 µM	8.21 µM	4.08 µM	21 µM	1.79 µM	8.47 µM	3.3 µM	15.1 µM	2.07 µM	5.31 µM	1.85 µM	7.91 µM	1.88 µM	11.3 µM	1.14 µM	6.91 µM	2.76 µM	13.7 µM	–	–
COc1cc2oc(-c3cccc(C(=O)Nc4ccc(C)cc4)c3)cc(=O)c2c(OC)c1OC	1.86 µM	4.59 µM	5.61 µM	> 100 µM	2.53 µM	> 100 µM	1.67 µM	4.11 µM	0.32 µM	3.97 µM	1.46 µM	> 100 µM	4.38 µM	> 100 µM	1.63 µM	3.56 µM	2.17 µM	> 100 µM	2.67 µM	9.31 µM
O=C1Nc2ccc(CN3CCOC3=O)cc2/C1=C/c1cc(CN2CCOCC2)c[nH]1	25.1 µM	> 80.7 µM	> 86.5 µM	> 100 µM	24.1 µM	> 91.9 µM	58 µM	> 100 µM	48.4 µM	> 100 µM	34.6 µM	> 100 µM	35.4 µM	> 100 µM	2.16 µM	> 100 µM	> 100 µM	> 100 µM	36.1 µM	> 100 µM
CNC12C3C4C1C1C2C3C41C(=O)N[C@H](C(=O)N(C)[C@H](C[C@@H](OC(C)=O)c1nc(C(=O)N[C@@H](Cc2ccccc2)C[C@H](C)C(=O)OC)cs1)C(C)C)C1CC1 (some centres not stated)	0.0403 µM	0.135 µM	0.354 µM	> 10.6 µM	0.0405 µM	> 15 µM	2.13 µM	> 15 µM	0.234 µM	> 15 µM	> 15 µM	> 15 µM	0.318 µM	3.02 µM	0.343 µM	1.31 µM	2.2 µM	> 15 µM	0.041 µM	0.524 µM
O=C(c1ccccc1)c1ccc(O)c2ncccc12	2.09 µM	8.82 µM	3.11 µM	> 100 µM	2.93 µM	9.08 µM	14.6 µM	> 100 µM	1.87 µM	13.1 µM	0.428 µM	6.03 µM	3.64 µM	> 100 µM	3.78 µM	> 100 µM	4.87 µM	22.3 µM	2.51 µM	8.3 µM
CC(=O)N1N=C(c2ccc(Nc3nc(Nc4ccc(F)cc4)nc(Nc4ccc(Cl)cc4)n3)cc2)CC1c1ccc(N(C)C)cc1 (configuration not stated)	5.04 µM	15.7 µM	12.1 µM	49.2 µM	3.94 µM	26.9 µM	11.7 µM	40.1 µM	3.85 µM	12.8 µM	1.65 µM	15.7 µM	5.23 µM	> 100 µM	9.73 µM	37.4 µM	14 µM	43.6 µM	3.79 µM	> 58.3 µM
C=C1[C@@H](O)C[C@H]2C(C)(C)C[C@H](Cl)C[C@]2(C)[C@H]1C[C@H](O)[C@H]1CC(=O)NC1=O	< 0.0107 µM	0.0547 µM	0.0179 µM	0.526 µM	< 0.01 µM	0.106 µM	0.0161 µM	0.127 µM	< 0.0445 µM	0.442 µM	< 0.0447 µM	0.508 µM	< 0.01 µM	–	< 0.0123 µM	0.0748 µM	0.0269 µM	0.395 µM	< 0.01 µM	0.0293 µM
COc1ccc(C2CC(c3cccc(OC)c3)=NN2C(=O)c2cc(OC)c(OC)c(OC)c2)cc1 (configuration not stated)	0.609 µM	–	4.09 µM	> 100 µM	0.367 µM	> 100 µM	12.5 µM	> 100 µM	4.26 µM	> 100 µM	1.55 µM	> 21.1 µM	1.84 µM	> 29.6 µM	0.654 µM	> 100 µM	> 21.2 µM	> 100 µM	2.66 µM	> 22.1 µM
Clc1ccc(-c2nc(C(Cl)Cl)nc3cc(-c4ccccc4)nn23)cc1	–	–	1.7 µM	> 50 µM	1.47 µM	> 50 µM	–	–	> 50 µM	> 50 µM	1.27 µM	> 50 µM	> 50 µM	> 50 µM	1.45 µM	> 50 µM	1.53 µM	> 50 µM	1.52 µM	> 50 µM
CNC(C)[C@H]1CCC2C3CCC4C[C@@H](N(C)C(=O)c5ccccc5)CC[C@]4(C)C3CC[C@@]21C (some centres not stated)	1.58 µM	4.28 µM	1.16 µM	3.21 µM	0.94 µM	3.35 µM	1.36 µM	2.9 µM	0.419 µM	1.8 µM	2.57 µM	15.5 µM	0.763 µM	3.4 µM	1.25 µM	3.36 µM	2.4 µM	14.8 µM	2.32 µM	8.5 µM
COc1ccc(C2SCC(=O)N2NC(=O)C(O)c2ccccc2)cc1 (configuration not stated)	> 100 µM	> 100 µM	> 100 µM	> 100 µM	> 100 µM	> 100 µM	> 100 µM	> 100 µM	> 100 µM	> 100 µM	> 100 µM	> 100 µM	> 100 µM	> 100 µM	> 100 µM	> 100 µM	> 100 µM	> 100 µM	> 100 µM	> 100 µM
Nc1cc(N)cc(Cc2ccccc2)c1	–	> 100 µM	–	> 100 µM	–	> 100 µM	–	> 100 µM	–	> 100 µM	–	> 100 µM	–	> 100 µM	–	> 100 µM	–	> 100 µM	–	> 100 µM
Clc1ccc(N/N=C(\c2ccccc2)c2ccccn2)nc1	0.0868 µM	–	0.324 µM	21.1 µM and 4.08 µM	0.0302 µM	> 100 µM	0.335 µM	> 100 µM	0.246 µM	4.48 µM	0.109 µM	–	0.0454 µM	–	0.506 µM	> 53.6 µM and 17.7 µM	0.234 µM	> 100 µM	0.0805 µM	2.77 µM
Cc1ccc(NC(=O)N2CCCCC2)cc1[N+](=O)[O-]	> 100 µM	> 100 µM	> 100 µM	> 100 µM	> 100 µM	> 100 µM	> 100 µM	> 100 µM	> 100 µM	> 100 µM	> 100 µM	> 100 µM	> 100 µM	> 100 µM	> 100 µM	> 100 µM	> 100 µM	> 100 µM	87.1 µM	> 100 µM
COc1cc2c(c(OC)c1OC)C(=O)c1c-2n(CCCN=[N+]=[N-])c(=O)c2cc([N+](=O)[O-])ccc12	> 100 µM	> 100 µM	29.8 µM	> 100 µM	27.2 µM	> 100 µM	> 100 µM	> 100 µM	> 100 µM	> 100 µM	53 µM	> 100 µM	–	–	71.2 µM	> 100 µM	> 100 µM	> 100 µM	16.9 µM	79.3 µM
CCOc1ccc2c(c1)C(=O)c1c-2n(CCCN)c(=O)c2cc([N+](=O)[O-])ccc12	0.314 µM	2.4 µM	0.0115 µM	1.06 µM	< 0.01 µM	0.271 µM	1.37 µM	2.89 µM	0.0144 µM	1.15 µM	0.0558 µM	1.82 µM	< 0.01 µM	0.0208 µM	0.0146 µM	1.19 µM	0.324 µM	1.82 µM	0.0134 µM	1.52 µM
CN(N=O)C(=O)Nc1ccc(C(=O)O)cc1	–	> 100 µM	–	> 100 µM	–	> 100 µM	–	> 100 µM	–	> 100 µM	–	> 100 µM	–	> 100 µM	–	> 100 µM	–	> 100 µM	–	> 100 µM
O=C(Nc1nc(-c2ccccc2)cs1)c1cc(O)c(O)c(O)c1	3.05 µM	10.1 µM	2.72 µM	31.9 µM	4.73 µM	> 100 µM	7.18 µM	60.8 µM	3.62 µM	32.1 µM	3.7 µM	> 100 µM	0.687 µM	10.5 µM	6.97 µM	55.1 µM	18.2 µM	47.7 µM	0.337 µM	1.23 µM
COC(=O)C1=CO[C@@H](OC2OC(CO)C(O)C(O)C2O)[C@@H]2[C@H](C)[C@@H](O)[C@@H](O)[C@]12O (some centres not stated)	–	> 100 µM	–	> 100 µM	–	> 100 µM	–	> 100 µM	–	> 100 µM	–	> 100 µM	–	–	–	> 100 µM	–	> 100 µM	–	> 100 µM
CCOC(=O)Nc1ccc(C(=O)/C=C/c2ccccc2)cc1	31.4 µM	> 100 µM	23.8 µM	69 µM	3.14 µM	33.9 µM	59 µM	> 100 µM	8.7 µM	33.1 µM	24.2 µM	65.8 µM	36.9 µM	> 100 µM	41.7 µM	> 100 µM	28.9 µM	90.5 µM	20.9 µM	79.8 µM
CC(C)C[C@H]1C(=O)N2CCC[C@H]2[C@]2(O)O[C@](NC(=O)[C@@H]3C=C4c5cccc6[nH]c(Br)c(c56)C[C@H]4N(C)C3)(C(C)C)C(=O)N12	–	28.1 µM	–	> 100 µM	–	> 100 µM	–	> 100 µM	–	> 100 µM	–	> 100 µM	–	> 100 µM	–	> 100 µM	–	> 100 µM	–	> 100 µM
Cc1cccc2c(N=Nc3ccccc3[N+](=O)[O-])c(O)[nH]c12	–	> 100 µM	–	33.3 µM	–	24.3 µM	–	> 100 µM	–	27.1 µM	–	> 31.4 µM	–	> 43.6 µM	–	28.3 µM	–	> 69.2 µM	–	2.85 µM
Cc1ccc(S(=O)(=O)NNC(C[N+](=O)[O-])c2ccccc2)cc1 (configuration not stated)	–	21.9 µM	–	35.7 µM	–	21.6 µM	–	–	–	> 100 µM	–	> 100 µM	–	> 100 µM	–	49.2 µM	–	> 100 µM	–	44.1 µM
CSC(=NC#N)S/C=C/C(=O)c1cccc2ccccc12	–	–	36.6 µM	> 100 µM	30.9 µM	> 100 µM	28.7 µM	73.4 µM	20.5 µM	> 100 µM	40.8 µM	> 100 µM	27.1 µM	> 100 µM	> 100 µM	> 100 µM	28.3 µM	82.9 µM	28.5 µM	81.4 µM
OCC#CCCCCOCC#Cc1ccccc1C#CCOCCCCC#CCO	36.2 µM	> 100 µM	37.4 µM	> 100 µM	47.5 µM	> 100 µM	20.1 µM	51.6 µM	12.5 µM	27.3 µM	23.6 µM	57.9 µM	–	–	19.2 µM	56.5 µM	48.4 µM	> 100 µM	71.3 µM	> 100 µM
Cc1ccc(N(/C=C/C(=O)C(F)(F)F)CC(=O)c2ccc(Cl)c(Cl)c2)cc1	–	–	12.5 µM	25 µM	7.27 µM	20.2 µM	11.2 µM	23.2 µM	10.1 µM	21.8 µM	2.76 µM	13.4 µM	4.89 µM	20.8 µM	4.24 µM	16.6 µM	4.7 µM	20.6 µM	5.16 µM	17.8 µM
C[n+]1cc2cc3c(cc2c2ccccc21)OCO3	–	–	0.48 µM	2.57 µM	2.61 µM	17.3 µM	3.49 µM	14.3 µM	9.11 µM	53.8 µM	> 100 µM	> 100 µM	8.71 µM	> 100 µM	3.17 µM	30.3 µM	16.5 µM	> 100 µM	2.17 µM	6.23 µM
